Laboratory results as given in patent US10550155B2, “Anticancer peptides” (priority 2018, dated 2020).
Like-named read-outs stand apart in the source and are kept apart here. Where a SMILES comes first, the peptide text is derived from it. Bridges are numbered along the chain shown (N, C = ends). Roman numbers before positions name the chains, in order. Where no end group is shown, it is not given here. [ ]: non-standard residue; d: D form.

Assays:
[1] = tested on: MCF-7 human breast cancer cell line; assay: MTT cytotoxicity assay, MCF-7 cells; assay type: cell-based
Experimental: (§1) The cytotoxic as well as antiproliferative effect of peptides was determined using MTT [3-(4, 5-dimethylthiazol-2-yl)-2, 5-diphenyl tetrazolium bromide] colorimetric assay. MCF-7, NIH-3T3, HeLa and H460 cells were cultured and after confluency, cells were used to test the cytotoxicity by MTT assay. Briefly (3×10^4/mL) of MCF-7 and (2×10^4/mL) cells of NIH-3T3, HeLa and H460 were seeded in 96-wells plate and incubated at 37° C. in 5% CO2 for 24 h. The MCF-7 cells were then treated with different doses of peptides and re-incubated in 5% CO2 at 37° C. for 48 hours. […] Experiment was performed three times and all doses were repeated in triplicate and the calculations were done using formula for percent inhibition.

HeLa cells = assay: MTT cytotoxicity assay, HeLa cells; assay type: cell-based
Experimental: as §1

[2] = tested on: DoHH2 cells (B-cell lymphoma); assay: Alamar blue viability assay, DoHH2 cells; assay type: cell-based
Experimental: The viability of DoHH2 cells was determined by Alamar blue assay. Briefly 200 μl of 1×10^5 cells/ml were incubated with different concentrations of compounds for 24 hours. A one-tenth volume of Alamar blue was then added and the incubation continued for 4 hrs. Absorbance was read in spectrophotometer at wavelengths of 570 nm and 600 nm.

H460 cells = assay: MTT cytotoxicity assay, H460 cells; assay type: cell-based
Experimental: as §1

[3] = MTT cytotoxicity assay, 3T3 cells; assay type: cell-based, mouse; conditions: mouse; for IC50: Cytotoxicity IC50, 3T3
Experimental: as §1

[4] = tested on: NIH-3T3 murine fibroblast cell line; assay: MTT cytotoxicity assay, 3T3 cells; assay type: cell-based, mouse
Experimental: as §1

MCF-7 cells = assay: Cell-growth on bead assay; assay type: cell-based, human; conditions: peptide on bead
THP-1 monocytes = conditions: cited from earlier work
[5] = tested on: bacteria, yeasts, fungi, and protozoa; conditions: cited from earlier work
[6] = tested on: Leishmania infantum promastigote and amastigote; conditions: cited from earlier work
HepG2 cells = conditions: cited from earlier work
human erythrocytes = conditions: cited from earlier work
fibroblasts = conditions: cited from earlier work
[7] = tested on: THP-1-derived macrophages; conditions: cited from earlier work
[8] = MTT, 48 hours, read-out: Cytotoxicity IC50, MCF-7
[9] = MTT, 48 hours, read-out: Cytotoxicity IC50, HeLa
[10] = Alamar blue, 24 hours, read-out: Cytotoxicity IC50, DoHH2
[11] = MTT, 48 hours, read-out: Cytotoxicity IC50, H460

CC[C@H](C)[C@H](NC(=O)CNC(=O)[C@H](CO)NC(=O)[C@H](CC(C)C)NC(=O)[C@@H](N)Cc1ccccc1)C(=O)N[C@H](C(=O)NCC(=O)N[C@@H](CCSC)C(=O)N[C@@H](CC(C)C)C(=O)N[C@H](C)C(=O)N[C@@H](CCCCN)C(=O)N[C@@H](CC(C)C)C(=O)N[C@@H](Cc1ccccc1)C(=O)N[C@@H](CCCCNC(=O)[C@H](CCCCNC(=O)[C@H](CC(C)C)NC(=O)[C@H](Cc1ccccc1)NC(=O)[C@H](CCCCN)NC(=O)[C@H](CCC(N)=O)NC(=O)[C@H](Cc1ccc(O)cc1)NC(=O)[C@H](C)NC(=O)[C@H](C)NC(=O)[C@H](CCC(=O)O)NC(=O)[C@H](CC(C)C)NC(=O)[C@@H](N)Cc1c[nH]c2ccccc12)NC(=O)[C@H](Cc1ccccc1)NC(=O)[C@H](CC(C)C)NC(=O)[C@H](CCCCN)NC(=O)[C@@H](C)NC(=O)[C@H](CC(C)C)NC(=O)[C@H](CCSC)NC(=O)CNC(=O)[C@@H](NC(=O)[C@@H](NC(=O)CNC(=O)[C@H](CO)NC(=O)[C@H](CC(C)C)NC(=O)[C@@H](N)Cc1ccccc1)[C@@H](C)CC)C(C)C)C(N)=O)C(C)C [conjugate 8] (I: H-FLSGIVGML[dA]KLFK-NH2 / II: H-FLSGIVGML[dA]KLFK / III: H-WLEAAYQKFL; amide I:14-II:C, II:14-III:C (inferred); N-terminus assumed)
IC50 ([1]; human, 48 h): 1.7 µM
Activity against HeLa cell line (in words) (HeLa cells; MTT): active
IC50 (HeLa cells; human, 48 h): 8.7 ± 0.65 µM
IC50 ([2]; human, 24 h): > 100 µM
Activity against H460 cell line (in words) (H460 cells; MTT): active
IC50 (H460 cells; human, 48 h): 14.3 ± 0.7 µM
IC50 at 48 h [3]: > 100 µM
Cytotoxicity against 3T3 cell line (in words) [4]: no cytotoxicity

WLEAAYQKFL (not fully specified) [peptide A, breast cancer targeting peptide ligand]
Binding to MCF-7 cells (MCF-7 cells): strong binding

[A^2,6,9, K^3] temporin-SHa [[A^2,6,9, K^3] SHa]
Cytotoxicity on THP-1 monocytes (literature) (THP-1 monocytes): inactive
Antimicrobial / antibacterial activity (literature) [5]: lack the antibacterial and antiparasitic activity
Antiparasitic activity (literature) [6]: lack the antibacterial and antiparasitic activity
Cytotoxicity on HepG2 cells (literature) (HepG2 cells): inactive

CC[C@H](C)[C@H](NC(=O)CNC(=O)[C@H](CO)NC(=O)[C@H](CC(C)C)NC(=O)[C@@H](N)Cc1ccccc1)C(=O)N[C@H](C(=O)NCC(=O)N[C@@H](CCSC)C(=O)N[C@@H](CC(C)C)C(=O)NCC(=O)N[C@@H](CCCCN)C(=O)N[C@@H](CC(C)C)C(=O)N[C@@H](Cc1ccccc1)C(N)=O)C(C)C [peptide 1, F-L-S-G-I-V-G-M-L-G-K-L-F, reference compound] (H-FLSGIVGMLGKLF-NH2)
Activity against MCF-7 cell line (in words) ([1]; MTT): active
IC50 [1, 8]: 14.5 ± 0.57 µM
Cytotoxicity on human erythrocytes (literature) (human erythrocytes): low cytotoxicity
Cytotoxicity on fibroblasts (literature) (fibroblasts): no cytotoxicity
Activity against HeLa cell line (in words) (HeLa cells; MTT): active
IC50 (HeLa cells; [9]): 18.4 ± 0.92 µM
Activity against DoHH2 cell line (in words) ([2]; Alamar blue): no cytotoxicity
IC50 [2, 10]: > 100 µM
Cytotoxicity on THP-1-derived macrophages (literature) [7]: low cytotoxicity
Cytotoxicity on THP-1 monocytes (literature) (THP-1 monocytes): low cytotoxicity
Activity against H460 cell line (in words) (H460 cells; MTT): active
IC50 (H460 cells; [11]): 34.5 ± 1.5 µM
Antimicrobial / antibacterial activity (literature) [5]: potent inhibitor
Antiparasitic activity (literature) [6]: antiparasitic activity
IC50 [3]: 73.3 ± 0.07 µM

CC[C@H](C)[C@H](NC(=O)CNC(=O)[C@H](CO)NC(=O)[C@H](CC(C)C)NC(=O)[C@@H](N)Cc1ccccc1)C(=O)N[C@H](C(=O)NCC(=O)N[C@@H](CCSC)C(=O)N[C@@H](CC(C)C)C(=O)N[C@H](C)C(=O)N[C@@H](CCCCN)C(=O)N[C@@H](CC(C)C)C(=O)N[C@@H](Cc1ccccc1)C(N)=O)C(C)C [peptide 4, F-L-S-G-I-V-G-M-L-a-K-L-F] (H-FLSGIVGML[dA]KLF-NH2)
IC50 ([1]; MTT, 48 hours, listed as SEQ ID NO: 4, read-out: Cytotoxicity IC50, MCF-7): 16 to 24 µM
IC50 [1, 8]: 16.2 ± 2.2 µM
IC50 (HeLa cells; MTT, 48 hours, listed as SEQ ID NO: 4, read-out: Cytotoxicity IC50, HeLa): 16 to 24 µM
IC50 (HeLa cells; [9]): 22.7 ± 0.86 µM
IC50 [2, 10]: > 100 µM
IC50 (H460 cells; MTT, 48 hours, listed as SEQ ID NO: 4, read-out: Cytotoxicity IC50, H460): 16 to 24 µM
IC50 (H460 cells; [11]): 24.3 ± 0.84 µM
IC50 [3]: 16 to 24 µM
Cytotoxicity against 3T3 cell line (in words) [4]: cytotoxic
IC50 ([4]; mouse): 16 ± 3.7 µM

CC[C@H](C)[C@H](NC(=O)[C@@H](C)NC(=O)[C@H](CO)NC(=O)[C@H](CC(C)C)NC(=O)[C@@H](N)Cc1ccccc1)C(=O)N[C@H](C(=O)NCC(=O)N[C@@H](CCSC)C(=O)N[C@@H](CC(C)C)C(=O)NCC(=O)N[C@@H](CCCCN)C(=O)N[C@@H](CC(C)C)C(=O)N[C@@H](Cc1ccccc1)C(N)=O)C(C)C [compound 2, F-L-S-a-I-V-G-M-L-G-K-L-F] (H-FLS[dA]IVGMLGKLF-NH2)
IC50 [1, 8]: 17.9 ± 1.1 µM
IC50 (HeLa cells; [9]): > 100 µM
IC50 [2, 10]: > 100 µM
IC50 (H460 cells; [11]): > 100 µM
IC50 [3]: > 100 µM
Cytotoxicity against 3T3 cell line (in words) [4]: inactive

COc1cccc2c1C(=O)c1c(O)c3c(c(O)c1C2=O)C[C@@](O)(C(=O)CO)C[C@@H]3O[C@H]1C[C@H](N)[C@H](O)[C@H](C)O1 [Doxorubicin, reference compound]
IC50 ([1]; Homo sapiens, MCF7, 48 h, read-out: Cytotoxicity IC50, MCF-7): 1.6 ± 0.2 µM
IC50 (HeLa cells; Homo sapiens, HeLa, 48 h, read-out: Cytotoxicity IC50, HeLa): 5.7 ± 0.36 µM

CC[C@H](C)[C@H](NC(=O)[C@@H](C)NC(=O)[C@H](CO)NC(=O)[C@H](CC(C)C)NC(=O)[C@@H](N)Cc1ccccc1)C(=O)N[C@H](C(=O)N[C@H](C)C(=O)N[C@@H](CCSC)C(=O)N[C@@H](CC(C)C)C(=O)N[C@H](C)C(=O)N[C@@H](CCCCN)C(=O)N[C@@H](CC(C)C)C(=O)N[C@@H](Cc1ccccc1)C(N)=O)C(C)C [compound 6, F-L-S-a-I-V-a-M-L-a-K-L-F] (H-FLS[dA]IV[dA]ML[dA]KLF-NH2)
IC50 ([1]; human, 48 h): 26.3 ± 5.8 µM
IC50 (HeLa cells; human, 48 h): > 100 µM
IC50 ([2]; human, 24 h): > 100 µM
IC50 (H460 cells; human, 48 h): > 100 µM
IC50 at 48 h [3]: > 100 µM
Cytotoxicity against 3T3 cell line (in words) [4]: inactive

CC[C@H](C)[C@H](NC(=O)CNC(=O)[C@H](CO)NC(=O)[C@H](CC(C)C)NC(=O)[C@@H](N)Cc1ccccc1)C(=O)N[C@H](C(=O)NCC(=O)N[C@@H](CCSC)C(=O)N[C@@H](CC(C)C)C(=O)N[C@H](C)C(=O)N[C@@H](CCCCNC(=O)[C@H](CC(C)C)NC(=O)[C@H](Cc1ccccc1)NC(=O)[C@H](CCCCN)NC(=O)[C@H](CCC(N)=O)NC(=O)[C@H](Cc1ccc(O)cc1)NC(=O)[C@H](C)NC(=O)[C@H](C)NC(=O)[C@H](CCC(=O)O)NC(=O)[C@H](CC(C)C)NC(=O)[C@@H](N)Cc1c[nH]c2ccccc12)C(=O)N[C@@H](CC(C)C)C(=O)N[C@@H](Cc1ccccc1)C(N)=O)C(C)C [conjugate 7] (I: H-FLSGIVGML[dA]KLF-NH2 / II: H-WLEAAYQKFL; amide I:11-II:C)
IC50 (HeLa cells; human, 48 h): > 100 µM
IC50 ([2]; human, 24 h): > 100 µM
IC50 (H460 cells; human, 48 h): > 100 µM
IC50 at 48 h [3]: > 100 µM

CC[C@H](C)[C@H](NC(=O)[C@@H](C)NC(=O)[C@H](CO)NC(=O)[C@H](CC(C)C)NC(=O)[C@@H](N)Cc1ccccc1)C(=O)N[C@H](C(=O)N[C@H](C)C(=O)N[C@@H](CCSC)C(=O)N[C@@H](CC(C)C)C(=O)NCC(=O)N[C@@H](CCCCN)C(=O)N[C@@H](CC(C)C)C(=O)N[C@@H](Cc1ccccc1)C(N)=O)C(C)C [compound 5, F-L-S-a-I-V-a-M-L-G-K-L-F] (H-FLS[dA]IV[dA]MLGKLF-NH2)
IC50 ([1]; human, 48 h): 29.5 ± 6.03 µM
IC50 (HeLa cells; human, 48 h): > 100 µM
IC50 ([2]; human, 24 h): > 100 µM
IC50 (H460 cells; human, 48 h): 37.3 ± 3.5 µM
IC50 at 48 h [3]: > 100 µM
Cytotoxicity against 3T3 cell line (in words) [4]: no cytotoxicity

[K^3] temporin-SHa
Antimicrobial / antibacterial activity (literature) [5]: more potent antimicrobial activity than temporin-SHa

[A^2,6,9] temporin-SHa [[A^2,6,9] SHa]
Cytotoxicity on THP-1 monocytes (literature) (THP-1 monocytes): inactive
Antimicrobial / antibacterial activity (literature) [5]: lack the antibacterial and antiparasitic activity
Antiparasitic activity (literature) [6]: lack the antibacterial and antiparasitic activity
Cytotoxicity on HepG2 cells (literature) (HepG2 cells): inactive

CC[C@H](C)[C@H](NC(=O)CNC(=O)[C@H](CO)NC(=O)[C@H](CC(C)C)NC(=O)[C@@H](N)Cc1ccccc1)C(=O)N[C@H](C(=O)N[C@H](C)C(=O)N[C@@H](CCSC)C(=O)N[C@@H](CC(C)C)C(=O)NCC(=O)N[C@@H](CCCCN)C(=O)N[C@@H](CC(C)C)C(=O)N[C@@H](Cc1ccccc1)C(N)=O)C(C)C [compound 3, F-L-S-G-I-V-a-M-L-G-K-L-F] (H-FLSGIV[dA]MLGKLF-NH2)
IC50 ([1]; human, 48 h): 22.4 ± 2.2 µM
IC50 (HeLa cells; human, 48 h): > 100 µM
IC50 ([2]; human, 24 h): > 100 µM
IC50 (H460 cells; human, 48 h): > 100 µM
IC50 at 48 h [3]: > 100 µM
Cytotoxicity against 3T3 cell line (in words) [4]: inactive
